This is an account of results in ChEMBL document CHEMBL5653603 (J Am Chem Soc, 2010).

The species named for one data set is Homo sapiens. The data set can be described thus: Selectivity ratio of IC50 for recombinant human HDAC1 to IC50 for recombinant human HDAC6.
The next data set deals with Histone deacetylase 1 (Homo sapiens, UniProt Q13547). The data set can be described thus: Inhibition of recombinant human HDAC1 using fluorogenic RHKKAc peptide as substrate by fluorescence assay. It is filed as single protein.
Data set [1] has as its target T1, Protein deacetylase HDAC6 (Homo sapiens, UniProt Q9UBN7).
T1 sequence (Q9UBN7 whole entry): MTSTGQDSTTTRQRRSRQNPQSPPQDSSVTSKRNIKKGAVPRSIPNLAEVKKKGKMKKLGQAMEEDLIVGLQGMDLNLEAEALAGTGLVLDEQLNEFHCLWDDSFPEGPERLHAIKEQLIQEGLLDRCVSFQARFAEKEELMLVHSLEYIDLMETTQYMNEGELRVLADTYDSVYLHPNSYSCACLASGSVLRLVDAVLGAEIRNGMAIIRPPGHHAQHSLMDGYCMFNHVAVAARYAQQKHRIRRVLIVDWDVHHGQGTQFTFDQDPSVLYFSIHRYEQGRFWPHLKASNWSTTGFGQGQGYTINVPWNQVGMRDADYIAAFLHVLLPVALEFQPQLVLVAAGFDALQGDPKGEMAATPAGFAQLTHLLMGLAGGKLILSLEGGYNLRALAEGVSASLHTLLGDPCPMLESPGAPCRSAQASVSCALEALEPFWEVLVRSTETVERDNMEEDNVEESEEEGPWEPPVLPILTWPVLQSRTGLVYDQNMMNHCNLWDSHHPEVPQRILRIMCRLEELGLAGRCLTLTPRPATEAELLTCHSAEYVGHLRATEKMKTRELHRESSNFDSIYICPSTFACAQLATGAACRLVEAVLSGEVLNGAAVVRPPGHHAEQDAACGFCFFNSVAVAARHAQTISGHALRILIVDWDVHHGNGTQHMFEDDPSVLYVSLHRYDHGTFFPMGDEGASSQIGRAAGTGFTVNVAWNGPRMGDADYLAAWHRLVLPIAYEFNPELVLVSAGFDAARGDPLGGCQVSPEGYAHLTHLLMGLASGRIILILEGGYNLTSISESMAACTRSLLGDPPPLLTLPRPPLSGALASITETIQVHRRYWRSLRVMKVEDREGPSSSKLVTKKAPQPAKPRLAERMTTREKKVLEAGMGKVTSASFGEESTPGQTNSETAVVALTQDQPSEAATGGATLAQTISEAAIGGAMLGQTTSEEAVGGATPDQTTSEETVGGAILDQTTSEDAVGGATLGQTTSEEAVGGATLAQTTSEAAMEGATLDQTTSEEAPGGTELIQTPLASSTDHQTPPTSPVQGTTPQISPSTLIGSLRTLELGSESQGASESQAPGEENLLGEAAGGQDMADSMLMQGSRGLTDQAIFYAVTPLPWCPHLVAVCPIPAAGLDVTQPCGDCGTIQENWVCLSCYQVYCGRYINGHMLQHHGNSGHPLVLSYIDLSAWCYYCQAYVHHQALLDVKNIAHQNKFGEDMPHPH
The experiment in a line: Inhibition of recombinant human HDAC6 using fluorogenic RHKKAc peptide as substrate by fluorescence assay.

A further data set deals with Primary cortical neuron. The data set can be described thus: Inhibition of HDAC6 in Sprague-Dawley rat primary cortical neurons assessed as induction of alpha-tubulin hyperacetylation at 2.5 uM measured after 30 mins by Western blot analysis. Type of data set: cell-based.
Data set [2] can be described thus: Neurotoxicity against Sprague-Dawley rat primary cortical neurons assessed as reduction in neuron survival at 1 to 10 uM measured after 24 hrs by MTT assay. The note with it: cortical neurone, dose 1-10 µM. Type of data set: toxicity, cell-based. Background: Tetrazolium dyes change colour on reduction, which living cells bring about.
The subject of data set [3] is Cortical neurone. The experiment in a line: Neuroprotective activity against HCA-induced Sprague-Dawley rat primary cortical neuron death assessed as increase in neuron survival at 0.5 uM measured after 24 hrs by MTT assay. Type of data set: functional, cell-based.
In data set [4] the test system is Cortical neurone. The experiment in a line: Neuroprotective activity against HCA-induced Sprague-Dawley rat primary cortical neuron death assessed as increase in neuron survival measured after 24 hrs by MTT assay. It is filed as functional, cell-based. The settings on record: dose 1-10 µM.
A short description of data set [5]: Inhibition of class 1 HDAC in Sprague-Dawley rat primary cortical neurons assessed as induction of histone hyperacetylation at 10 uM measured after 30 mins by Western blot analysis. The note with it: primary cortical neuron, 0.5 h. Type of data set: cell-based. For orientation: In western blotting, separated proteins are transferred to a membrane and probed.

Each structure is given as a SMILES string. Activity calls are given as the source filed them. No cut-off for these calls is given here.

Chain of Histone deacetylase 1 (Q13547 whole entry): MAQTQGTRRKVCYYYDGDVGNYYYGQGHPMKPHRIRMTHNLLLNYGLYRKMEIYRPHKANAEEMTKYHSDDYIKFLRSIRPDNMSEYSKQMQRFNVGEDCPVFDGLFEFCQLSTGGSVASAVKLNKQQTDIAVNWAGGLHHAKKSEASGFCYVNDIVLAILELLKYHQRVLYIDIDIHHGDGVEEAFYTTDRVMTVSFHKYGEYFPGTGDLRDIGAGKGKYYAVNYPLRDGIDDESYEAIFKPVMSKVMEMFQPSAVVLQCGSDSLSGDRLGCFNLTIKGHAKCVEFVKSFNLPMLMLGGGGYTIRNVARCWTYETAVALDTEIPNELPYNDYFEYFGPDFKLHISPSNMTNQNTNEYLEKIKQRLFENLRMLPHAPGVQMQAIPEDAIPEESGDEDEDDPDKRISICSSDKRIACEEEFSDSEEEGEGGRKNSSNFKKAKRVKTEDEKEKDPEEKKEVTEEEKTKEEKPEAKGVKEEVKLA

By IC50 is commonly meant the point on the concentration scale where inhibition reaches its midpoint. `O=C(NO)c1ccc(Cn2c3ccccc3c3ccccc32)cc1`: the Ratio IC50 in the data set filed under Homo sapiens was 574. Further, the IC50 at Histone deacetylase 1 is 10.9 µM.

For `CN1CCc2c(n(Cc3ccc(C(=O)NO)cc3)c3ccccc23)C1`, the Ratio IC50 in the data set filed under Homo sapiens stood at 3700. In addition, the values for the IC50 (at Histone deacetylase 1; in data set [1]) were 5.18 µM and 0.001 µM, respectively.

On to `CN1CCc2c(c3ccccc3n2CCCCCC(=O)NO)C1`, for which the figures for the IC50 (at Histone deacetylase 1; in data set [1]) were 25.2 µM and 0.213 µM, respectively.

Take `O=C(CCCCCn1c2ccccc2c2ccccc21)NO`: the Ratio IC50 in the data set filed under Homo sapiens amounted to 226. Moreover, the IC50 on Histone deacetylase 1 amounted to 14 µM; in data set [1], 0.062 µM.

As to `O=C(Cc1ccc(Cn2c3ccccc3c3ccccc32)cc1)NO`, the IC50 on Histone deacetylase 1 was over 30 µM; in data set [1], 0.301 µM.

As for `O=C(CCCCCCC(=O)Nc1ccc([C@H]2O[C@@H](CSc3nc(-c4ccccc4)c(-c4ccccc4)o3)C[C@@H](c3ccc(CO)cc3)O2)cc1)NO`, the inhibition result with Primary cortical neuron is “Active”.

As to `CC(/C=C/C(=O)NO)=C\[C@@H](C)C(=O)c1ccc(N(C)C)cc1` [TRICHOSTATIN], the Activity entry in data set [2] is “Toxic”. Further, the result in the data set on Cortical neurone [3] was Active.

On to `O=C(NO)n1c2ccccc2c2ccccc21`, for which the IC50 (at Histone deacetylase 1; in data set [1]) was over 30 µM throughout.

With `CN1CCc2c(c3ccccc3n2Cc2ccc(C(=O)NO)cc2)C1.O=C(O)C(F)(F)F`, the Activity result was “Dose-Dependent Effect” with Cortical neurone [4] and “Non-Toxic” in data set [2]. The inhibition entry in the data set on Primary cortical neuron is “Active”. The “inhibition (INH)” value in data set [5] is listed as “Active”.

Turning to `O=C(NO)c1ccc(CCn2c3ccccc3c3ccccc32)cc1`, the IC50 on Histone deacetylase 1 was over 30 µM; in data set [1] it was 0.18 µM.

With `O=C(CCn1c2ccccc2c2ccccc21)NO`, the IC50 on Histone deacetylase 1 is over 30 µM.

For the molecule `CN1CCc2c(n(CCCCCC(=O)NO)c3ccccc23)C1`, the IC50 is over 30 µM on Histone deacetylase 1 and 0.55 µM in data set [1].

On to `O=C(CCCCCn1c2c(c3ccccc31)CCCC2)NO`, for which the IC50 on Histone deacetylase 1 amounted to 8.6 µM; in data set [1], 0.09 µM.
